Values of other authors as cited in patent publication US20100310597A1, “ANTI-OFLOXACIN MONOCLONAL ANTIBODY AND IMMUNOASSAY OF OFLOXACIN USING THE SAME” (SEKISUI MEDICAL CO., LTD, priority 2007, published 2010).

Conditions: background statement

## C[C@H]1COc2c(N3CCN(C)CC3)c(F)cc3c(=O)c(C(=O)O)cn1c23 [levofloxacin, (−)-(S)-9-fluoro-2,3-dihydro-3-methyl-10-(4-methyl-1-piperazinyl)-7-oxo-7H-pyrido[1,2,3-de][1,4]benzoxazine-6-carboxylic acid]
  Antibiotic activity relative to ofloxacin: approximately twice
